Assay results from patent US11498930B2 (BLUERAY THERAPEUTICS (SHANGHAI) CO., LTD., priority 2018, dated 2022).
pIC50: −log10 of the molar value.

Target: SHP2^E76A protein (Homo sapiens (Human), UniProt Q06124, E76A)
Assay: SHP2 enzyme activity inhibition experiment
Assay type: biochemical
Conditions: SHP2 enzyme activity, Tables 1.1 and 1.2; read-out: IC50
Protocol: Compound powders were dissolved in DMSO to prepare mother liquor.
During the experiment, the stock solutions of the compounds were subjected to 3-fold gradient dilution with DMSO, and 10 different test concentrations of each compound were set. […] The protein used was the activated protein SHP^2E76A with amino acid mutation at position 76 of the protein, and the substrate used was DiFMUP (Invitrogen, E12020). […] 50 µL of enzyme solution was added to the detection wells, followed by 50 µL of substrate. […] GraphPad Prism 5 was used for nonlinear regression analysis, and the curve of enzyme activity versus compound concentration was fitted by the equation Y=Bottom+(Top-Bottom)/(1+10^((Log IC50−X)*HillSlope)) to calculate the IC50 value of each compound.

Sequence of SHP2^E76A protein (Q06124 whole entry E76A): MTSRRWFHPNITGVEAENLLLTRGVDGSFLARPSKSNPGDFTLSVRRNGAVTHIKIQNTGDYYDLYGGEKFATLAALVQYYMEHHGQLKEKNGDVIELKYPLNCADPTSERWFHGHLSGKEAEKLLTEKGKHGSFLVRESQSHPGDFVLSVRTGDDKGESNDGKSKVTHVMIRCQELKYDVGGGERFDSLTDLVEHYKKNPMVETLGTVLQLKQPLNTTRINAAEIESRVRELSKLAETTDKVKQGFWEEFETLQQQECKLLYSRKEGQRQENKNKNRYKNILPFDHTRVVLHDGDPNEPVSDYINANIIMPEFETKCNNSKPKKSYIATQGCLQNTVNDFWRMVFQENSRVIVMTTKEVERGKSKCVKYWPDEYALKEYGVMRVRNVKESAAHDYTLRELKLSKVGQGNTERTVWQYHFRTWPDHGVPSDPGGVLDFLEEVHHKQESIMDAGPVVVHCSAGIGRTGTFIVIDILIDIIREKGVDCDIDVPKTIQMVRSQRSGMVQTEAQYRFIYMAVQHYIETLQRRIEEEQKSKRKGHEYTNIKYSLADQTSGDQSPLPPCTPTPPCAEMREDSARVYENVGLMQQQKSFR

SMILES	pIC50
CN(C)c1nccc(Sc2cnc(N3CCC4(CCC[C@H]4N)CC3)n3cnnc23)c1Cl [(R)-8-(8-((3-chloro-2-(dimethylamino)pyridin-4-yl)thio)-[1,2,4]triazolo[4,3-c]pyrimidin-5-yl)-8-azaspiro[4.5]decan-1-amine]	6.00 to 7.00
N[C@@H]1CCCC12CCN(c1ncc(Sc3ccncc3C(F)(F)F)c3ncnn13)CC2 [(R)-8-(8-((3-(trifluoromethyl)pyridin-4-yl)thio)-[1,2,4]triazolo[1,5-c]pyrimidin-5-yl)-8-azaspiro[4.5]decan-1-amine]	5.00 to 6.00
N[C@@H]1CCCC12CCN(c1ncc(Sc3ccccc3)c3nncn13)CC2 [(R)-8-(8-(phenylthio)-[1,2,4]triazolo[4,3-c]pyrimidin-5-yl)-8-azaspiro[4.5]decan-1-amine]	5.00 to 6.00
Cc1ncccc1Sc1cnc(N2CCC3(CCC[C@H]3N)CC2)n2cnnc12 [(R)-8-(8-((2-methylpyridin-3-yl)thio)-[1,2,4]triazolo[4,3-c]pyrimidin-5-yl)-8-azaspiro[4.5]decan-1-amine]	6.00 to 7.00
N[C@H]1CCC12CCN(c1ncc(Sc3cccc(Cl)c3Cl)c3nncn13)CC2 [(S)-7-(8-((2,3-dichlorophenyl)thio)-[1,2,4]triazolo[4,3-c]pyrimidin-5-yl)-7-azaspiro[3.5]nonan-1-amine]	5.00 to 6.00
NCC1CCN(c2ncc(Sc3cccc(Cl)c3Cl)c3nccn23)C1 (stereo not drawn) [(1-(8-((2,3-dichlorophenyl)thio)imidazo[1,2-c]pyrimidin-5-yl)pyrrolidin-3-yl)methanamine]	6.00 to 7.00
N[C@@H]1CCCN(c2ncc(Sc3cccc(Cl)c3Cl)c3nccn23)CC1 [(R)-1-(8-((2,3-dichlorophenyl)thio)imidazo[1,2-c]pyrimidin-5-yl)azepan-4-amine]	6.00 to 7.00
NC1CCN(c2ncc(Sc3cccc(Cl)c3Cl)c3nccn23)CC1 [1-(8-((2,3-dichlorophenyl)thio)imidazo[1,2-c]pyrimidin-5-yl)piperidin-4-amine]	6.00 to 7.00
C[C@H]1OCC2(CCN(c3ncc(Sc4cccc(Cl)c4Cl)c4ncnn34)CC2)[C@@H]1N [(3R,4S)-8-(8-((2,3-dichlorophenyl)thio)-[1,2,4]triazolo[1,5-c]pyrimidin-5-yl)-3-methyl-2-oxa-8-azaspiro[4.5]decan-4-amine]	6.00 to 7.00
Cn1ccnc1Sc1cnc(N2CCC3(CCC[C@H]3N)CC2)n2cnnc12 [(R)-8-(8-((1-methyl-1H-imidazol-2-yl)thio)-[1,2,4]triazolo[4,3-c]pyrimidin-5-yl)-8-azaspiro[4.5]decan-1-amine]	5.00 to 6.00
N[C@@H]1CCCC12CCN(c1ncc(Sc3ccnc(Cl)n3)c3nccn13)CC2 [(R)-8-(8-((2-chloropyrimidin-4-yl)thio)imidazo[1,2-c]pyrimidin-5-yl)-8-azaspiro[4.5]decan-1-amine]	> 7.00
N[C@@H]1CCCC12CCN(c1ncc(Sc3cccc4ncsc34)c3nccn13)CC2 [(R)-8-(8-(benzo[d]thiazol-7-ylthio)imidazo[1,2-c]pyrimidin-5-yl)-8-azaspiro[4.5]decan-1-amine]	6.00 to 7.00
N[C@@H]1CCCC12CCN(c1ncc(Sc3ccccn3)c3nncn13)CC2 [(R)-8-(8-(pyridin-2-ylthio)-[1,2,4]triazolo[4,3-c]pyrimidin-5-yl)-8-azaspiro[4.5]decan-1-amine]	5.00 to 6.00
Nc1cc(Sc2cnc(N3CCC4(CCC[C@H]4N)CC3)n3cnnc23)c(Cl)cn1 [(R)-8-(8-((2-amino-5-chloropyridin-4-yl)thio)-[1,2,4]triazolo[4,3-c]pyrimidin-5-yl)-8-azaspiro[4.5]decan-1-amine]	5.00 to 6.00
CC1(N)COCC12CCN(c1ncc(Sc3cccc(Cl)c3Cl)c3nncn13)CC2 (stereo not drawn) [8-(8-((2,3-dichlorophenyl)thio)-[1,2,4]triazolo[4,3-c]pyrimidin-5-yl)-4-methyl-2-oxa-8-azaspiro[4.5]decan-4-amine]	5.00 to 6.00
Cc1nccc(Sc2cnc(N3CCC4(CC3)COC[C@H]4N)n3ncnc23)c1Cl [(S)-8-(8-((3-chloro-2-methylpyridin-4-yl)thio)-[1,2,4]triazolo[1,5-c]pyrimidin-5-yl)-2-oxa-8-azaspiro[4.5]decan-4-amine]	5.00 to 6.00
Cc1nccc(Sc2cnc(N3CCC4(CC3)CO[C@H](C)[C@H]4N)n3cnnc23)c1Cl [(3R,4S)-8-(8-((3-chloro-2-methylpyridin-4-yl)thio)-[1,2,4]triazolo[4,3-c]pyrimidin-5-yl)-3-methyl-2-oxa-8-azaspiro[4.5]decan-4-amine]	> 7.00
CC1(N)CCN(c2ncc(Sc3cccc(Cl)c3Cl)c3ncnn23)CC1 [1-(8-((2,3-dichlorophenyl)thio)-[1,2,4]triazolo[1,5-c]pyrimidin-5-yl)-4-methylpiperidin-4-amine]	5.00 to 6.00
Clc1cccc(Sc2cnc(N3CCC4(CCCN4)CC3)n3cnnc23)c1Cl [8-(8-((2,3-dichlorophenyl)thio)-[1,2,4]triazolo[4,3-c]pyrimidin-5-yl)-1,8-diazaspiro[4.5]decane]	5.00 to 6.00
NCC1CCN(c2ncc(Sc3cccc(Cl)c3Cl)c3nccn23)CC1 [(1-(8-((2,3-dichlorophenyl)thio)imidazo[1,2-c]pyrimidin-5-yl)piperidin-4-yl)methanamine]	6.00 to 7.00

SMILES	pIC50
CN(C)C(=O)C(=O)Nc1cccc(Sc2cnc(N3CCC4(CCC[C@H]4N)CC3)n3ccnc23)c1Cl	6.00 to 7.00
CC(C)c1ccccc1Sc1cnc(N2CCC3(CCC[C@H]3N)CC2)n2ccnc12 [(R)-8-(8-((2-isopropylphenyl)thio)imidazo[1,2-c]pyrimidin-5-yl)-8-azaspiro[4.5]decan-1-amine]	6.00 to 7.00
C[C@H]1OCC2(CCN(c3ncc(Sc4cccc(Cl)c4Cl)c4ncnn34)CC2)[C@H]1N [(3R,4R)-8-(8-((2,3-dichlorophenyl)thio)-[1,2,4]triazolo[1,5-c]pyrimidin-5-yl)-3-methyl-2-oxa-8-azaspiro[4.5]decan-4-amine]	5.00 to 6.00
N[C@@H]1CCCC12CCN(c1ncc(-c3cccc(Cl)c3Cl)c3nccn13)CC2 [(R)-8-(8-(2,3-dichlorophenyl)imidazo[1,2-c]pyrimidin-5-yl)-8-azaspiro[4.5]decan-1-amine]	6.00 to 7.00
Nc1ccc(Sc2cnc(N3CCC4(CCC[C@H]4N)CC3)n3ccnc23)c(Cl)n1 [(R)-8-(8-((6-amino-2-chloropyridin-3-yl)thio)imidazo[1,2-c]pyrimidin-5-yl)-8-azaspiro[4.5]decan-1-amine]	> 7.00
CC(=O)Nc1ccc(Sc2cnc(N3CCC4(CCC[C@H]4N)CC3)n3cnnc23)cc1 [(R)-N-(4-((5-(1-amino-8-azaspiro[4.5]decan-8-yl)-[1,2,4]triazolo[4,3-c]pyrimidin-8-yl)thio)phenyl)acetamide]	5.00 to 6.00
NC1CC2(CCN(c3ncc(Sc4cccc(Cl)c4Cl)c4nccn34)CC2)C1 [7-(8-((2,3-dichlorophenyl)thio)imidazo[1,2-c]pyrimidin-5-yl)-7-azaspiro[3.5]nonan-2-amine]	6.00 to 7.00
NC1CCN(c2ncc(Sc3cccc(Cl)c3Cl)c3nncn23)CC1 [1-(8-((2,3-dichlorophenyl)thio)-[1,2,4]triazolo[4,3-c]pyrimidin-5-yl)piperidin-4-amine]	5.00 to 6.00
Cc1ncccc1Sc1cnc(N2CCC3(CCC[C@H]3N)CC2)n2ncnc12	5.00 to 6.00
N[C@@H]1CCCC12CCN(c1ncc(Sc3c(Cl)cccc3Cl)c3nncn13)CC2 [(R)-8-(8-((2,6-dichlorophenyl)thio)-[1,2,4]triazolo[4,3-c]pyrimidin-5-yl)-8-azaspiro[4.5]decan-1-amine]	5.00 to 6.00
CC1(N)CCN(c2ncc(-c3cccc(Cl)c3Cl)c3nncn23)CC1 [1-(8-(2,3-dichlorophenyl)-[1,2,4]triazolo[4,3-c]pyrimidin-5-yl)-4-methylpiperidin-4-amine]	5.00 to 6.00
CC1CN(c2ncc(Sc3cccc(Cl)c3Cl)c3nncn23)CC(C)N1 (stereo not drawn) [8-((2,3-dichlorophenyl)thio)-5-(3,5-dimethylpiperazin-1-yl)-[1,2,4]triazolo[4,3-c]pyrimidine]	5.00 to 6.00
N[C@@H]1CCCCC12CCN(c1ncc(Sc3cccc(Cl)c3Cl)c3nccn13)CC2 [(R)-3-(8-((2,3-dichlorophenyl)thio)imidazo[1,2-c]pyrimidin-5-yl)-3-azaspiro[5.5]undecan-7-amine]	6.00 to 7.00
Nc1ccc(Sc2cnc(N3CCC4(CCC[C@H]4N)CC3)n3cnnc23)cc1 [(R)-8-(8-((4-aminophenyl)thio)-[1,2,4]triazolo[4,3-c]pyrimidin-5-yl)-8-azaspiro[4.5]decan-1-amine]	5.00 to 6.00
N[C@@H]1CCCC12CCN(c1ncc(Sc3ccccc3Cl)c3nccn13)CC2 [(R)-8-(8-((2-chlorophenyl)thio)imidazo[1,2-c]pyrimidin-5-yl)-8-azaspiro[4.5]decan-1-amine]	> 7.00
N[C@@H]1CCCC12CCN(c1ncc(Sc3ccc4c(c3)CCO4)c3nccn13)CC2 [(R)-8-(8-((2,3-dihydrobenzofuran-5-yl)thio)imidazo[1,2-c]pyrimidin-5-yl)-8-azaspiro[4.5]decan-1-amine]	6.00 to 7.00
N[C@@H]1CCCC12CCN(c1ncc(Sc3ccc(Cl)cc3Cl)c3nccn13)CC2 [(R)-8-(8-((2,4-dichlorophenyl)thio)imidazo[1,2-c]pyrimidin-5-yl)-8-azaspiro[4.5]decan-1-amine]	6.00 to 7.00
CC1(N)CCN(c2ncc(Sc3ccnc(N)c3Cl)c3nccn23)CC1 [4-((5-(4-amino-4-methylpiperidin-1-yl)imidazo[1,2-c]pyrimidin-8-yl)thio)-3-chloropyridin-2-amine]	6.00 to 7.00
COC(=O)c1ccccc1Sc1cnc(N2CCC3(CCC[C@H]3N)CC2)n2cnnc12 [Methyl (R)-2-((5-(1-amino-8-azaspiro[4.5]decan-8-yl)-[1,2,4]triazolo[4,3-c]pyrimidin-8-yl)thio)benzoate]	5.00 to 6.00
